Laboratory results: patent US20110118277A1, “METHOD OF TREATING LIVER DISEASE” (priority 2003, published 2011)

Assays:
[1] = test system: C57BL-6 mice fed HMCDE diet; assay: HMCDE diet-induced liver injury in mice: body weight, liver mass, histology, serum ALT, tolerability; assay type: in vivo, mouse
Procedure: C57BL-6 mice, 10-18 weeks old, were from Jackson Laboratory (Bar Harbor, Me.) were subjected to the following experiments.
In addition to choline deficiency the diet used here was also 50% deficient in methionine to enhance oxidative injury to the liver, This diet was administered with ethionine (0.15%) in drinking water (Hepatology 2001; 34; 519-522) and the combination treatment is hereafter referred to as half methionine choline deficient diet plus ethionine (HMCDE).
Chemical sympathectomy was achieved by intra-peritoneal (IP) injection of 6-hydroxydopamine (6-OHDA), 100 mg/kg for 5 consecutive days as described in Ann Surg 2001; 233:266-275. Thereafter, 6-OHDA was administered at 100 mg/kg i.p., three times per week to ensure continued sympathectomy.
Mice were divided into 4 groups, with each group containing 10 to 12 animals. […] Therefore, final results are derived from ˜100 mice (10-12 mice/group/experiment×2 experiments).
All mice were weighed at the beginning of the feeding period and weekly thereafter until killed. At the time of sacrifice, sera were collected from all the animals in each group and liver tissue from half the animals in each group. Collected liver tissues were either fixed in buffered formalin, preserved in OCT compound (Sakura, Torrance, Calif.) and processed for histology or snap frozen in liquid nitrogen and stored at −80° C. until RNA was isolated. The livers from the remaining animals in each group were prepared for flow cytometry as described below.
Wedges of liver from each of the mice were prepared for histology and immunochemistry as described previously (Am J Pathol 2002: 161:5210530 and Nat. Med. 2000; 6: 998-1003). For histology, tissues were formalin fixed, paraffin embedded and […] sections were stained with hematoxylin and eosin (H&E). Coded samples were examined by an experienced liver pathologist who was blinded to treatment groups. Hepatocellular fat accumulation was scored as, no fat 0, focal fat accumulation in <1% of the hepatocytes=F, fat in 1-30% of the hepatocytes 1+, fat in 31-60% of the hepatocytes=2+, and fat in 61-100% of the hepatocytes3+. To evaluate the amount of hepatocyte necrosis, the number of necrotic hepatocytes was counted in 10 randomly selected fields with a 20× lens.
Sera from all the animals were analysed for alanine aminotransferase (ALT) activity by the Clinical Chemistry laboratory of the Johns Hopkins Hospital.

[2] = test system: NK-T cells; assay: Flow cytometry of liver NK-T cells in HMCDE-fed mice; assay type: in vivo, mouse; conditions: HMCDE-treated mice; HMCDE alone 8±1%; mean±SEM
Procedure: Briefly, livers were carefully removed and homogenized in Stomacher80 (Seawood, England). The homogenate was then passed through a 100-μm wire mesh and liver cells were collected by centrifugation at 450 g. Mononuclear cells were purified from this fraction by centrifugation at 900 g over 35% Percoll gradients (Amersham Pharmacia Biotech) and incubated with normal mouse serum (Sigma, St Louis, Mo.) and Fc-receptor block (anti-CD16/CD32) to prevent nonspecific binding, plus APC-conjugated anti-mouse Thy-1.2 (the C57BL-6 form of the Thy-1 antibody) and antibodies directed against hematopoietic lineage markers (LIN, a mix of anti-mouse CD4, CD8, CD3, CD45, CD19, Mac-1, Gr-1, Ter119). For NK-T cell labelling, the mononuclear cells were incubated with FTTC-conjugated anti-mouse NK-1.1 and PE-conjugated anti-mouse CD3. All antibodies were from Pharmingen except anti-mouse Ter119, which was from Cedarline lab, Canada. After incubation, pellets were washed to remove unbound antibodies, fixed with 2% formaldehyde and evaluated by FACS (Becton Dickenson). As described in Science 1999; 284:1168-1170, LN^−ve/Thy-1^+ve cells, were classified as putative bone marrow-derived, hepatic progenitor cells. Data was analyzed by Cell Quest software (Becton Dickenson) to determine changes in these cell populations in different treatment groups.

[3] = test system: norepinephrine; conditions: 6-OHDA 100 mg/kg i.p. regimen, previously shown; cited from earlier work
[4] = test system: healthy rats; conditions: healthy rats treated chronically; cited from earlier work
[5] = test system: TNF-α; assay: Hepatic expression of TNF-α mRNA in whole liver RNA; assay type: in vivo, mouse; conditions: 3 controls and 3 PRZ-treated mice
Source text: The latter possibility merits further investigation because it has been reported that TNF-a increases in mice that are fed choline-deficient diets and that proliferating hepatic oval cells produce this cytokine. Moreover, it has been reported that TNF-α is required for oval cell expansion because this response is abrogated by genetic disruption of TNFR1. These observations are particularly intriguing because TNF-α and TNFR1 are necessary for liver regeneration after PH and other types of liver injury. There is strong evidence for cross talk between signaling mechanisms that are activated by TNF-α and those that are modulated by sympathetic neurotransmitters, such as NE. In addition, NE regulates TNF production and vice versa. Thus, SNS inhibition may promote HPC accumulation and decrease liver injury indirectly, by effecting TNF-α activity. […] However, before firm conclusions can be drawn, these studies must be extended to include more animals and assays for TNF-α protein and activity will be necessary.

[6] = test system: Mouse hepatic oval cells (HOC); assay: Oval cell growth in culture (WST-8 cell number assay); assay type: cell-based
Procedure: Mouse hepatic oval cells (HOC) (from Dr. Bryon Petersen, University of Florida College of Medicine, Gainesville, Fla.) were maintained in culture with Iscove's modified DMEM according to the protocol described in PNAS 99: 8078-8083, 2002. To confirm that the cells retained their oval cell phenotype in our hands, expression of the embryonic isoform of pyruvate kinase (M2-PK) was evaluated by immunocytochemistry and immunoblot.
Sub-confluent HOC were harvested by gentle trypsinisation and resuspended in serum-free Iscove's modified Dulbecco's minimal essential medium (DMEM), at a density of 5,000 cells/100 μl/well in 96-well plates. […] After 44 hours, cell numbers were assessed by a further 4 h incubation with WST-8 tetrazolium reagent (Dojindo Molecular Technologies, Gaithersburg, Md.) as described in J Clin Invest 106: 501-509, 2000. In viable cells, the tetrazolium salt is metabolized to a colorimetric dye and cell number is proportional to the signal intensity at 450 nm Therefore, this assay reliably detects treatment-induced changes in cell number.
Oval cells were cultured in serum free medium (SF), serum or serum plus increasing concentrations of NE (a) or ISO (c). After 48 hours, the numbers of cells in culture were evaluated. […] Cell numbers were determined after 48 hours.

[7] = test system: carbon tetrachloride-treated rats; conditions: earlier study; cited from earlier work
[8] = test system: hepatocyte DNA synthesis; conditions: rats pre-treated immediately before PH; cited from earlier work

Compound	weight loss versus HMCDE group ([1]; FIG. 1, 4 weeks of feeding, P<0.05)	liver cell death / necrosis, representative liver section ([1]; FIG. 3A, H&E)	hepatocellular fat accumulation score, representative liver section ([1]; FIG. 3A, H&E, representative HMCDE animal 2+)	fat score versus HMCDE alone ([1]; FIG. 3B)	numbers of necrotic hepatocytes versus HMCDE diet alone ([1]; FIG. 3C, P<0.05)	serum alanine aminotransferase (ALT) versus HMCDE-fed mice ([1]; FIG. 3D, P<0.03)	mean body weight lost ([1]; mice fed HMCDE diet, 4 weeks, HMCDE alone lost 3 g) [g]	body weight lost, % of starting body weight ([1]; mice fed HMCDE diet, 4 weeks, HMCDE alone lost 12%) [%]	numbers of NK-T cells in the liver, % liver mononuclear cells [2] [%]	norepinephrine in rodent tissues [3]	liver weight, body weight, ratio and serum ALT [4]	hepatic TNF-α gene expression versus HMCDE-treated controls [5]	effect on proliferation induced by NE plus ISO ([6]; PRZ 10 μM, NE (100 nM)+ISO (100 nM))	effect on NE-induced oval cell proliferation ([6]; prazosin 10 μM, pertussis toxin 100 ng/ml, PD98059 20 μM, SB202190 10 μM, 48 hours)	development of cirrhosis [7]	compensatory induction of hepatocyte DNA synthesis after partial hepatectomy [8]
NCCc1cc(O)c(O)cc1O [6-OHDA, 6-hydroxydopamine]	lost less weight than the HMCDE group	minimal necrosis	F+	significantly less fat than the HMCDE alone group	reduced	lower ALT levels	2	8	3.6 ± 0.6	virtually deplete norepinephrine in rodent tissues	liver weight, body weight and liver weight to body weight ratios increase significantly without any associated increase in serum ALT values					
COc1cc2nc(N3CCN(C(=O)c4ccco4)CC3)nc(N)c2cc1OC [PRZ, prazosin]												No differences in TNF-a gene expression were detected	blocks catecholamine-induced proliferation	significantly attenuated	prevents the development of cirrhosis	inhibited
